Test system: HCV replicon
Assay: Replicon based assay of HCV replication inhibition (NPT ELISA)
Assay type: cell-based, Hepatitis C virus
Conditions: Hepatitis C virus, Huh-7, 72 h, Table I; Huh-7 HCV replicon-containing cells, three days; read-out: Activity
Outline: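 Huh-7 cells carrying a bicistronic HCV replicon (neo, EMCV-IRES-driven NS3–NS5B) treated overnight after seeding with usually 6 concentrations, 10 to 0.03 micromolar, for three days at 37° C without G418. Replication read as NPT level by captured ELISA; matched-DMSO wells and interferon alpha as controls.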

Row | Structure (SMILES) | EC50 [nM]
1 | c1ccc(Oc2cccc(CCNc3nc(-c4cccnc4)cs3)c2)cc1 [compound 83, N-(3-phenoxyphenethyl)-4-(pyridin-3-yl)thiazol-2-amine] | > 10000
2 | c1cncc(-c2csc(Nc3ccc(C4CCCCC4)cc3)n2)c1 [compound 100, N-(4-cyclohexylphenyl)-4-(pyridin-3-yl)thiazol-2-amine] | < 1000
3 | CCCCCOc1ccc(Nc2nc(-c3ccc(Cl)c(Cl)c3)cs2)cc1 [compound 24, 4-(3,4-dichlorophenyl)-N-(4-(pentyloxy)phenyl)thiazol-2-amine] | < 1000
4 | CCCCCOc1ccc(N(C(C)=O)c2nc(C(=O)Nc3cccnc3)cs2)cc1C(F)(F)F [compound 173, 2-(N-(3-(trifluoromethyl)-4-(pentyloxy)phenyl)acetamido)-N-(pyridin-3-yl)thiazole-4-carboxamide] | > 10000
5 | O=C(Nc1ccc(OCc2ccccc2)cc1)c1nc(-c2cccnc2)cs1 [compound 114] | > 10000

Same assay, conditions: Hepatitis C virus, Huh-7, 72 h, Table III; Huh-7 HCV replicon-containing cells, three days; read-out: Activity

Row | Structure (SMILES) | EC50 [nM]
6 | CCCCCCCCOc1ccc(Nc2nc(-c3ccc(-n4ccnc4)cc3)cs2)cc1C(F)(F)F [compound 661, 4-(4-(1H-imidazol-1-yl)phenyl)-N-(3-(trifluoromethyl)-4-(octyloxy)phenyl)thiazol-2-amine] | < 1000
7 | CCCCCCCCOc1ccc(Nc2nc(-c3cnc(O)cc3C)cs2)cc1C(F)(F)F [compound 659, 5-(2-(3-(trifluoromethyl)-4-(octyloxy)phenylamino)thiazol-4-yl)-4-methylpyridin-2-ol] | < 1000

Same assay, conditions: Hepatitis C virus, replicon based assay of HCV replication inhibition; Table II; read-out: Activity

Row | Structure (SMILES) | EC50 [nM]
8 | CCCCCCCOc1ccc(Nc2nc(-c3ccc(O)c(C(N)=O)c3)cs2)cc1 [compound 448, 5-(2-(4-- (heptyloxy)phenylamino)thia-zol-4-yl)-2-hydroxybenzamide] | < 1000
9 | CCCCCCCOc1ccc(Nc2nc(-c3ccc(Cl)s3)cs2)cc1 [compound 393, 4-(5-chlorothiophen-2-yl)-N-(4-(heptyloxy)phenyl)thiazol-2-amine] | < 1000
10 | CCCCCOc1ccc(Nc2nc(CN3C(C)CCCC3C)cs2)cc1C(F)(F)F (stereo not drawn) [compound 277, 4-((2,6-dimethylpiperidin-1-yl)methyl)-N-(4-(pentyloxy)-3-(trifluoromthyl)phenyl)thia-zol-2-amine] | < 1000

Same assay, conditions: Hepatitis C virus, replicon based assay of HCV replication inhibition; Table IV; read-out: Activity

Row | Structure (SMILES) | EC50 [nM]
11 | CCCCCCCCOc1ccc(Nc2nc(-c3cccc(C(=O)OCC)n3)cs2)cc1C(F)(F)F [compound 730, ethyl 6-(2-(3-(trifluoromethyl)-4-(octyloxy)phenylamino)thiazol-4-yl)pyridine-2-carboxylate] | < 1000
12 | c1ccc(-c2ccc(Nc3nc(-c4cccnc4)cs3)cn2)cc1 [compound 756, 6-phenyl-N-(4-(pyridin-3-yl)thiazol-2-yl)pyridin-3-amine] | 1000 to 10000

Source: patent publication US8088806B2 (Achillion Pharmaceuticals, Inc., priority 2005, dated 2012)
